The assay has as its target Carbonic anhydrase 9 (Homo sapiens, UniProt Q16790). The assay can be described thus: Inhibition of recombinant human carbonic anhydrase 9 incubated for 15 mins by phenol red based stopped-flow CO2 hydration assay.

The structures appear in SMILES notation.

Consider `CCCCCCOC(=O)c1csc(Nc2ccc(S(N)(=O)=O)cc2)n1`, for which the Ki came out at 70.6 nM.
Take `CCCCCCCOC(=O)c1csc(Nc2ccc(S(N)(=O)=O)cc2)n1`: the Ki is 74.3 nM.
The same measure for `NS(=O)(=O)c1ccc(Nc2nc(C(=O)OCCCCc3ccccc3)cs2)cc1`: 86.8 nM; for `CC(CO)OC(=O)c1csc(Nc2ccc(S(N)(=O)=O)cc2)n1` (stereo not given): 37.9 nM; for `NS(=O)(=O)c1ccc(Nc2nc(C(=O)OCCOc3ccccc3)cs2)cc1`: 150 nM.
For `NS(=O)(=O)c1ccc(Nc2nc(C(=O)OCCO)cs2)cc1` the value was 43.2 nM; for `CCCCOC(=O)c1csc(Nc2ccc(S(N)(=O)=O)cc2)n1`, 71.1 nM; for `CCCCCOC(=O)c1csc(Nc2ccc(S(N)(=O)=O)cc2)n1`, 72 nM.
The same measure for `CC(O)COC(=O)c1csc(Nc2ccc(S(N)(=O)=O)cc2)n1` (stereo not given): 37.9 nM.
Regarding `CCOCCOC(=O)c1csc(Nc2ccc(S(N)(=O)=O)cc2)n1`, the Ki was 51.2 nM.
The same measure for `COCCOC(=O)c1csc(Nc2ccc(S(N)(=O)=O)cc2)n1`: 35.1 nM.
For `CCCCCCCCOC(=O)c1csc(Nc2ccc(S(N)(=O)=O)cc2)n1` the value was 78.9 nM.
The same measure for `CCCOC(=O)c1csc(Nc2ccc(S(N)(=O)=O)cc2)n1`: 49.9 nM.
For the compound `CC(C)OC(=O)c1csc(Nc2ccc(S(N)(=O)=O)cc2)n1`, the Ki came out at 90.3 nM.
For `NS(=O)(=O)c1ccc(Nc2nc(C(=O)OCCOCCO)cs2)cc1` the value was 26.8 nM.

Source of the values: ChEMBL document CHEMBL5131458, “Design, synthesis and human carbonic anhydrase I, II, IX and XII inhibitory properties of 1,3-thiazole sulfonamides” (Bioorg Med Chem Lett, 2022).
